Here are results for twelve compounds from patent publication US11208386B2, “Inhibitors of protein arginine deiminases (PADs) and methods of preparation and use thereof” (University of Massachusetts, priority 2016, dated 2021).

What all share (type): biochemical
For one test, the target named is T1, PAD1 (Homo sapiens, UniProt Q9ULC6).
T1 construct: made in house
T1 sequence (Q9ULC6 1-663): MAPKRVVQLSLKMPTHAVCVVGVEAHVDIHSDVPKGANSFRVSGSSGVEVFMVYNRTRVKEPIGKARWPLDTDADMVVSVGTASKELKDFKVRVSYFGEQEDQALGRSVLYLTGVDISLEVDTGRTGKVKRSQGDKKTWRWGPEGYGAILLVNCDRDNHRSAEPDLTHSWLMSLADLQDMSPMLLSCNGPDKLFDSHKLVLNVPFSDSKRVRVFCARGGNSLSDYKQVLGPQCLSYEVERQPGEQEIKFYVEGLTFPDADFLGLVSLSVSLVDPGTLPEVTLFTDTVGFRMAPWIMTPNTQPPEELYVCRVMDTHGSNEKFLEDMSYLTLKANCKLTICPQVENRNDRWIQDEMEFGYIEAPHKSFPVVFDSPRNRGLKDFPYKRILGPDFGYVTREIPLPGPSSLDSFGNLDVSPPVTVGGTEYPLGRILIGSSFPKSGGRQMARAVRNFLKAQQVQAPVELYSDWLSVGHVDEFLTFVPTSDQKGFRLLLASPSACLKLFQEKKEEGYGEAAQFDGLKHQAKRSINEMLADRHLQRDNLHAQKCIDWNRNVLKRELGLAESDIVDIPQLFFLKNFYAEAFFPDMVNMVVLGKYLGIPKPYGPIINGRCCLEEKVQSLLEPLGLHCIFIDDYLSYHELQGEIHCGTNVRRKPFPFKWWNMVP
Briefly: Inactivation kinetics, PAD1. The settings on record: for kinact/KI: a: single kobs determined, b: from a linear fit; for Fold PAD1 Selectivity: kinact/KI relative to least inhibited isozyme (1.0). A digest of the protocol:
(§1)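 PAD1, 2 or 4 (2.0 μM) or PAD3 (5.0 μM) preincubated at 37 °C with varying inhibitor in 50 mM HEPES, 10 mM CaCl2, 2 mM DTT, pH 7.6. Timed aliquots assayed 15 min with 10 mM BAEE (BAA for PAD3); citrulline quantified by COLDER.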

The target of the next test is T2, PAD2 (Homo sapiens, UniProt Q9Y2J8).
T2 construct: made in house
T2 sequence (Q9Y2J8 whole entry): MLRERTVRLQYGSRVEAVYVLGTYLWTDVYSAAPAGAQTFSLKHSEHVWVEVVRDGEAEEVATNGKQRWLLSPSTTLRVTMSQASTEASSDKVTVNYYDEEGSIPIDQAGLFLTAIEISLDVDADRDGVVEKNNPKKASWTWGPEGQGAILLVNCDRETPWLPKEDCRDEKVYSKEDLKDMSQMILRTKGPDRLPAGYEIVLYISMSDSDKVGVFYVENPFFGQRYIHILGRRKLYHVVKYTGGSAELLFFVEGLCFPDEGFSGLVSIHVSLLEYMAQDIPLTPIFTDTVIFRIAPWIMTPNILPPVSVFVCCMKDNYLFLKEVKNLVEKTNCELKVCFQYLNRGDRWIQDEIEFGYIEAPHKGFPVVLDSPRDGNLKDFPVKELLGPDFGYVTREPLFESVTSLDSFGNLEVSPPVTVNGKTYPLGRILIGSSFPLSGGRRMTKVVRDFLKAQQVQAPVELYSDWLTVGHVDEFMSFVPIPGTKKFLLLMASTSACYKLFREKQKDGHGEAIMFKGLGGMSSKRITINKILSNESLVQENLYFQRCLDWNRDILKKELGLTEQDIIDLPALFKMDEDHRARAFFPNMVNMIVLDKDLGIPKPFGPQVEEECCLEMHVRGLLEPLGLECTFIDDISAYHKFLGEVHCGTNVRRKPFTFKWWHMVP
Briefly: Inactivation kinetics, PAD2. Conditions: for kinact/KI: a: single kobs determined, b: from a linear fit, other footnotes: from kinact and KI; for Fold PAD2 Selectivity: kinact/KI relative to least inhibited isozyme (1.0); for Ki / kinact: PAD2, table footnote. A digest of the protocol: as §1

For another test, the target named is T3, PAD3 (Homo sapiens, UniProt Q9ULW8).
T3 construct: made in house
T3 sequence (Q9ULW8 1-664): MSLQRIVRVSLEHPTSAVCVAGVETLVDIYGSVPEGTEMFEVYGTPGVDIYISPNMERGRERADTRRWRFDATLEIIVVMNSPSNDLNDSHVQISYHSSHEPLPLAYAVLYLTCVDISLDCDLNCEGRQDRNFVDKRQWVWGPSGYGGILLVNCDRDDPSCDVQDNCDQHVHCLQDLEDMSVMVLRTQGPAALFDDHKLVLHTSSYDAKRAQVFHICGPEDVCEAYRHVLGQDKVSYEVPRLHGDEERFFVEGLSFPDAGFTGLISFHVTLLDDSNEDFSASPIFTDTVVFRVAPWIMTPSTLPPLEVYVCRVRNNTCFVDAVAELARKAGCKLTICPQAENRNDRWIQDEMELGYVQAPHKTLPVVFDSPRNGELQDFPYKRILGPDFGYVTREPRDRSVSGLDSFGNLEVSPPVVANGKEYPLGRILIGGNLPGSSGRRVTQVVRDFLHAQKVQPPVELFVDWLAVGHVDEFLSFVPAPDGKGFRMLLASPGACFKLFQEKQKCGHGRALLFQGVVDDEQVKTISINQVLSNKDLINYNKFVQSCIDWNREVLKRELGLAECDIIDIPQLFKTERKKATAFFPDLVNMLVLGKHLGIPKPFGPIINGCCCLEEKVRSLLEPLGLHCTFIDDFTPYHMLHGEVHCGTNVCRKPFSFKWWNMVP
Briefly: Inactivation kinetics, PAD3. The settings on record: for kinact/KI: a: single kobs determined; for Fold PAD3 Selectivity: kinact/KI relative to least inhibited isozyme (1.0). A digest of the protocol:
as §1

A further test deals with T4, PAD4 (Homo sapiens, UniProt Q9UM07).
T4 construct: made in house
T4 sequence (Q9UM07 whole entry): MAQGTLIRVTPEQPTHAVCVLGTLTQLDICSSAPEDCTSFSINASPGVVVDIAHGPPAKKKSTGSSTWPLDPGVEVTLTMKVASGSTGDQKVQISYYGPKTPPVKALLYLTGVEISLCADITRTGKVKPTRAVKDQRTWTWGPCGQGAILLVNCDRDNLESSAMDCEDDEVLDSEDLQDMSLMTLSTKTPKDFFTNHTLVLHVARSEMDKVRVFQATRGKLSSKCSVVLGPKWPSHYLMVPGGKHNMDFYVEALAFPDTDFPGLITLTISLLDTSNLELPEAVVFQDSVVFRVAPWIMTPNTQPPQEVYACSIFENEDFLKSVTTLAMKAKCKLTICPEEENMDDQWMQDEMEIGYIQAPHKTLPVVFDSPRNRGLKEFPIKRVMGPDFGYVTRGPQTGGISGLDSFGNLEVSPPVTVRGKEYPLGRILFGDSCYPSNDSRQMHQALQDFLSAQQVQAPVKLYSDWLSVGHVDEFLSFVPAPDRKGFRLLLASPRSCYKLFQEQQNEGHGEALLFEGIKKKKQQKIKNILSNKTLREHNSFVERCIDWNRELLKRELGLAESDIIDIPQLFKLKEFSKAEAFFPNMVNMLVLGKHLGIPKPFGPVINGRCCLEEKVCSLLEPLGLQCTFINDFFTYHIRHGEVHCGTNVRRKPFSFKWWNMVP
Briefly: Inactivation kinetics, PAD4. Conditions: for kinact/KI: a: single kobs determined, b: from a linear fit; for Fold PAD4 Selectivity: kinact/KI relative to least inhibited isozyme (1.0). An outline of the steps: as §1

In general, kinact/KI refers to the second-order rate constant of inactivation. For orientation: kinact means the maximal first-order rate at which the target is inactivated.

In the case of `Cn1c([C@H](CCCNC(=N)CCl)NC(=O)c2cccc3c2C(=O)NC3)nc2ccccc21` [Compound 7d, N1-(3-oxoisoindoline)benzol-N5-(2-chloro-1-iminoethyl)-1-(1-methyl-benzo[d]imidazol-2-yl)-L-ornithine], at PAD1, the kinact/KI was 2430 M⁻¹ s⁻¹ and the “Fold PAD1 Selectivity” value is reported as 61 fold. Moreover, at PAD2, the kinact/KI was 1220 M⁻¹ s⁻¹ and the “Fold PAD2 Selectivity” value amounted to 3.1 fold. In addition, on PAD3, the kinact/KI was 808 M⁻¹ s⁻¹ and the “Fold PAD3 Selectivity” value is given as 2.0 fold. Further, at PAD4, the kinact/KI is 398 M⁻¹ s⁻¹ and the “Fold PAD4 Selectivity” value came to 1.0 fold.
On to `CCn1c([C@H](CCCNC(=N)CF)NC(=O)c2cccc3c2C(=O)NC3)nc2ccccc21` [Compound 7e, N1-(3-oxoisoindoline)benzoyl-N5-(2-fluoro-1-iminoethyl)-1-(1-ethyl-benzo[d]imidazol-2-yl)-L-ornithine], for which, on PAD1, the kinact/KI is 675 M⁻¹ s⁻¹ and the “Fold PAD1 Selectivity” value is listed as 37 fold. Besides, at PAD2, the Ki was determined as 32.9 µM, the kinact was 0.0337 s⁻¹, the kinact/KI is 1030 M⁻¹ s⁻¹ and the “Fold PAD2 Selectivity” value came to 56 fold. For the same compound, on PAD3, the kinact/KI is 18.3 M⁻¹ s⁻¹ and the “Fold PAD3 Selectivity” value came to 1.0 fold. At PAD4, the kinact/KI was 31.7 M⁻¹ s⁻¹ and the “Fold PAD4 Selectivity” value worked out at 1.7 fold.
Take `CCn1c([C@H](CCCNC(=N)CCl)NC(=O)c2cccc3c2C(=O)NC3)nc2ccccc21` [Compound 7f, N1-(3-oxoisoindoline)benzol-N5-(2-chloro-1-iminoethyl)-1-(1-ethyl-benzo[d]imidazol-2-yl)-L-ornithine]: at PAD1, the kinact/KI was 2200 M⁻¹ s⁻¹ and the “Fold PAD1 Selectivity” value is on record as 10 fold. On PAD2, the kinact/KI was 1010 M⁻¹ s⁻¹ and the “Fold PAD2 Selectivity” value is given as 4.8 fold. Moreover, on PAD3, the kinact/KI was 377 M⁻¹ s⁻¹ and the “Fold PAD3 Selectivity” value is recorded as 1.8 fold. For the same compound, on PAD4, the kinact/KI is 210 M⁻¹ s⁻¹ and the “Fold PAD4 Selectivity” value is listed as 1.0 fold.
For `CC(C)n1c([C@H](CCCNC(=N)CF)NC(=O)c2cccc3c2C(=O)NC3)nc2ccccc21` [Compound 7g, N1-(3-oxoisoindoline)benzol-N5-(2-fluoro-1-iminoethyl)-1-(1-isopropyl-benzo[d]imidazol-2-yl)-L-ornithine], on PAD1, the kinact/KI is 104 M⁻¹ s⁻¹ and the “Fold PAD1 Selectivity” value was 12 fold. Also, on PAD2, the second-order inactivation constant (kinact/KI) was 172 M⁻¹ s⁻¹ and the “Fold PAD2 Selectivity” value was found to be 20 fold. Besides, on PAD3, the kinact/KI is 8.5 M⁻¹ s⁻¹ and the “Fold PAD3 Selectivity” value is 1.0 fold. Further, at PAD4, the kinact/KI was 20.5 M⁻¹ s⁻¹ and the “Fold PAD4 Selectivity” value was found to be 2.4 fold.
For the compound `CC(C)n1c([C@H](CCCNC(=N)CCl)NC(=O)c2cccc3c2C(=O)NC3)nc2ccccc21` [Compound 7h, N1-(3-oxoisoindoline)benzol-N5-(2-chloro-1-iminoethyl)-1-(1-isopropyl-benzo[d]imidazol-2-yl)-L-ornithine], at PAD1, the kinact/KI is 960 M⁻¹ s⁻¹ and the “Fold PAD1 Selectivity” value is given as 27 fold. Further, at PAD2, the kinact/KI is 282 M⁻¹ s⁻¹ and the “Fold PAD2 Selectivity” value is on record as 8.0 fold. For the same compound, on PAD3, the kinact/KI is 112 M⁻¹ s⁻¹ and the “Fold PAD3 Selectivity” value was determined as 3.2 fold. Also, at PAD4, the kinact/KI is 35 M⁻¹ s⁻¹ and the “Fold PAD4 Selectivity” value is 1.0 fold.
On to `COc1cccc2[nH]c([C@H](CCCNC(=N)CF)NC(=O)c3cccc4c3C(=O)NC4)nc12` [Compound 7i, N1-(3-oxoisoindoline)benzol-N5-(2-fluoro-1-iminoethyl)-1-(4-methoxy-1H-benzo[d]imidazol-2-yl)-L-omithine], for which, on PAD1, the inactivation efficiency (kinact/KI) is 1530 M⁻¹ s⁻¹ and the “Fold PAD1 Selectivity” value was 42 fold. At PAD2, the kinact/KI is 292 M⁻¹ s⁻¹ and the “Fold PAD2 Selectivity” value amounted to 8.0 fold. For the same compound, at PAD3, the kinact/KI was 138 M⁻¹ s⁻¹ and the “Fold PAD3 Selectivity” value is on record as 3.8 fold. In addition, on PAD4, the kinact/KI was 36.3 M⁻¹ s⁻¹ and the “Fold PAD4 Selectivity” value is listed as 1.0 fold.
Regarding `COc1cccc2[nH]c([C@H](CCCNC(=N)CCl)NC(=O)c3cccc4c3C(=O)NC4)nc12` [Compound 7j, N1-(3-oxoisoindoline)benzoyl-N5-(2-chloro-1-iminoethyl)-1-(4-methoxy-1H-benzo[d]imidazol-2-yl)-L-ornithine], on PAD1, the kinact/KI was 2180 M⁻¹ s⁻¹ and the “Fold PAD1 Selectivity” value is given as 30 fold. In addition, at PAD2, the kinact/KI was 802 M⁻¹ s⁻¹ and the “Fold PAD2 Selectivity” value is given as 11 fold. Also, at PAD3, the kinact/KI is 502 M⁻¹ s⁻¹ and the “Fold PAD3 Selectivity” value is 6.9 fold. For the same compound, on PAD4, the kinact/KI is 72.3 M⁻¹ s⁻¹ and the “Fold PAD4 Selectivity” value was 1.0 fold.
For `COc1cccc2c1nc([C@H](CCCNC(=N)CF)NC(=O)c1cccc3c1C(=O)NC3)n2C` [Compound 7k, N1-(3-oxoisoindoline)benzoyl-N5-(2-fluoro-1-iminoethyl)-1-(4-methoxy-1-methyl-benzo[d]imidazol-2-yl)-L-ornithine], on PAD1, the kinact/KI was 2150 M⁻¹ s⁻¹ and the “Fold PAD1 Selectivity” value was 29 fold. Further, at PAD2, the Ki came to 16.5 µM, the kinact was determined as 0.0578 s⁻¹, the kinact/KI was 3500 M⁻¹ s⁻¹ and the “Fold PAD2 Selectivity” value amounted to 47 fold. Moreover, at PAD3, the kinact/KI was 73.8 M⁻¹ s⁻¹ and the “Fold PAD3 Selectivity” value is 1.0 fold. Further, on PAD4, the kinact/KI is 238 M⁻¹ s⁻¹ and the “Fold PAD4 Selectivity” value was determined as 3.2 fold.
On to `COc1cccc2c1nc([C@H](CCCNC(=N)CCl)NC(=O)c1cccc3c1C(=O)NC3)n2C` [Compound 7l, N1-(3-oxoisoindoline)benzoyl-N5-(2-chloro-1-iminoethyl)-1-(4-methoxy-1-methyl-benzo[d]imidazol-2-yl)-L-ornithine], for which, on PAD1, the kinact/KI was 1300 M⁻¹ s⁻¹ and the “Fold PAD1 Selectivity” value is on record as 3.9 fold. At PAD2, the kinact/KI is 1300 M⁻¹ s⁻¹ and the “Fold PAD2 Selectivity” value was 3.9 fold. Moreover, at PAD3, the kinact/KI is 332 M⁻¹ s⁻¹ and the “Fold PAD3 Selectivity” value is given as 1.0 fold. On PAD4, the kinact/KI is 422 M⁻¹ s⁻¹ and the “Fold PAD4 Selectivity” value was 1.3 fold.
Consider `CCOc1cccc2c1nc([C@H](CCCNC(=N)CF)NC(=O)c1cccc3c1C(=O)NC3)n2C` [Compound 7m], for which, on PAD1, the kinact/KI was 1070 M⁻¹ s⁻¹ and the “Fold PAD1 Selectivity” value is recorded as 65 fold. Besides, on PAD2, the Ki is 55.2 µM, the kinact was 0.0868 s⁻¹, the kinact/KI is 1570 M⁻¹ s⁻¹ and the “Fold PAD2 Selectivity” value worked out at 95 fold. In addition, on PAD3, the kinact/KI is 20 M⁻¹ s⁻¹ and the “Fold PAD3 Selectivity” value was determined as 1.2 fold. At PAD4, the kinact/KI is 16.5 M⁻¹ s⁻¹ and the “Fold PAD4 Selectivity” value came to 1.0 fold.
As to `CCOc1cccc2c1nc([C@H](CCCNC(=N)CCl)NC(=O)c1cccc3c1C(=O)NC3)n2C` [Compound 7n], on PAD1, the kinact/KI was 982 M⁻¹ s⁻¹ and the “Fold PAD1 Selectivity” value is recorded as 24 fold. Besides, on PAD2, the kinact/KI is 1200 M⁻¹ s⁻¹ and the “Fold PAD2 Selectivity” value was determined as 30 fold. Also, at PAD3, the kinact/KI was 108 M⁻¹ s⁻¹ and the “Fold PAD3 Selectivity” value is given as 2.7 fold. At PAD4, the kinact/KI is 40.2 M⁻¹ s⁻¹ and the “Fold PAD4 Selectivity” value came out at 1.0 fold.
Regarding `COc1ccc2c(c1)nc([C@H](CCCNC(=N)CF)NC(=O)c1cccc3c1C(=O)NC3)n2C` [Compound 7o, N1-(3-oxoisoindoline)benzoyl-N5-(2-fluoro-1-iminoethyl)-1-(5-methoxy-1-methyl-benzo[d]imidazol-2-yl)-L-ornithine], at PAD1, the kinact/KI is 2080 M⁻¹ s⁻¹ and the “Fold PAD1 Selectivity” value was determined as 121 fold. Further, at PAD2, the Ki was determined as 20.7 µM, the kinact came to 0.0403 s⁻¹, the kinact/KI is 1960 M⁻¹ s⁻¹ and the “Fold PAD2 Selectivity” value was 114 fold. Also, at PAD3, the kinact/KI was 17.2 M⁻¹ s⁻¹ and the “Fold PAD3 Selectivity” value is 1.0 fold. Moreover, at PAD4, the kinact/KI was 20.5 M⁻¹ s⁻¹ and the “Fold PAD4 Selectivity” value is on record as 1.2 fold.
